System: Plasmodium berghei
Test: Antiplasmodial activity against Plasmodium berghei NK65 infected in mouse assessed as inhibition of inhibition of parasitemia at 1 mg/kg, po treated for 3 consecutive days 24 hrs after parasite infection and measured on day 5 after inoculation by Giemsa staining based microscopy
Type: functional
Settings: not given

Row | SMILES | inhibition in vivo at 1 mg/kg
1 | COc1ncnc(NS(=O)(=O)c2ccc(N)cc2)c1OC [SULFADOXINE] | 100%

System: Plasmodium berghei
Test: Antiplasmodial activity against Plasmodium berghei NK65 infected in mouse assessed as inhibition of inhibition of parasitemia at 10 mg/kg, po treated for 3 consecutive days 24 hrs after parasite infection and measured on day 7 after inoculation by Giemsa staining based microscopy
Type: functional
Settings: not given

Row | SMILES | inhibition in vivo at 10 mg/kg
2 | O=S(=O)(NCCCNc1ccnc2cc(Cl)ccc12)c1ccc(F)cc1 | 27%
3 | O=S(=O)(NCCCCNc1ccnc2cc(Cl)ccc12)c1ccc(Cl)cc1 | 33%
4 | O=S(=O)(NCCCCNc1ccnc2cc(Cl)ccc12)c1ccc(F)cc1 | 7%
5 | Cc1ccc(S(=O)(=O)NCCCCNc2ccnc3cc(Cl)ccc23)cc1 | 0%

System: Plasmodium berghei
Test: Antiplasmodial activity against Plasmodium berghei NK65 infected in mouse assessed as inhibition of inhibition of parasitemia at 20 mg/kg, po treated for 3 consecutive days 24 hrs after parasite infection and measured on day 7 after inoculation by Giemsa staining based microscopy
Type: functional
Settings: not given

Row | SMILES | inhibition in vivo at 20 mg/kg
6 | CCN(CC)CCCC(C)Nc1ccnc2cc(Cl)ccc12 (centres undefined) [CHLOROQUINE] | 76%

System: Plasmodium berghei
Test: Antiplasmodial activity against Plasmodium berghei NK65 infected in mouse assessed as inhibition of inhibition of parasitemia at 1 mg/kg, po treated for 3 consecutive days 24 hrs after parasite infection and measured on day 7 after inoculation by Giemsa staining based microscopy
Type: functional
Settings: not given

Row | SMILES | inhibition in vivo at 1 mg/kg
7 | COc1ncnc(NS(=O)(=O)c2ccc(N)cc2)c1OC [SULFADOXINE] | 96%

System: Plasmodium falciparum
Test: Antiplasmodial activity against chloroquine and sulfadoxine-resistant and mefloquine-sensitive Plasmodium falciparum W2 infected in human erythrocytes by anti-HRP2 assay
Type: functional, organism-based
Settings: not given

Row | SMILES | IC50
8 | O=S(=O)(NCCNc1ccnc2cc(Cl)ccc12)c1ccc(Cl)cc1 | 0.68 µM
9 | O=S(=O)(NCCNc1ccnc2cc(Cl)ccc12)c1ccccc1 | 1.63 µM
10 | Cc1ccc(S(=O)(=O)NCCNc2ccnc3cc(Cl)ccc23)cc1 | 0.48 µM
11 | O=S(=O)(NCCNc1ccnc2cc(Cl)ccc12)c1ccc(Br)cc1 | 1.21 µM
12 | O=S(=O)(NCCNc1ccnc2cc(Cl)ccc12)c1ccc(F)cc1 | 1.13 µM
13 | O=S(=O)(NCCCNc1ccnc2cc(Cl)ccc12)c1ccccc1 | 0.35 µM
14 | Cc1ccc(S(=O)(=O)NCCCNc2ccnc3cc(Cl)ccc23)cc1 | 0.28 µM
15 | O=S(=O)(NCCCNc1ccnc2cc(Cl)ccc12)c1ccc(Cl)cc1 | 0.27 µM
16 | O=S(=O)(NCCCNc1ccnc2cc(Cl)ccc12)c1ccc(Br)cc1 | 0.29 µM
17 | O=S(=O)(NCCCNc1ccnc2cc(Cl)ccc12)c1ccc(F)cc1 | 0.1 µM
18 | O=S(=O)(NCCCCNc1ccnc2cc(Cl)ccc12)c1ccccc1 | 0.4 µM
19 | O=S(=O)(NCCCCNc1ccnc2cc(Cl)ccc12)c1ccc(Cl)cc1 | 0.09 µM
20 | O=S(=O)(NCCCCNc1ccnc2cc(Cl)ccc12)c1ccc(Br)cc1 | 0.15 µM
21 | O=S(=O)(NCCCCNc1ccnc2cc(Cl)ccc12)c1ccc(F)cc1 | 0.15 µM
22 | Cc1ccc(S(=O)(=O)NCCCCNc2ccnc3cc(Cl)ccc23)cc1 | 0.05 µM
23 | COc1ncnc(NS(=O)(=O)c2ccc(N)cc2)c1OC [SULFADOXINE] | > 15.5 µM

System: not listed separately
Test: Cytotoxicity against African green monkey BGM cells incubated for 18 hrs by neutral red assay
Type: cell-based
Settings: chlorocebus aethiops, read-out: MLC50

Row | SMILES | CC50 at 18 h
24 | O=S(=O)(NCCNc1ccnc2cc(Cl)ccc12)c1ccc(Cl)cc1 | 116 µM
25 | O=S(=O)(NCCNc1ccnc2cc(Cl)ccc12)c1ccccc1 | 122 µM
26 | Cc1ccc(S(=O)(=O)NCCNc2ccnc3cc(Cl)ccc23)cc1 | 125 µM
27 | O=S(=O)(NCCNc1ccnc2cc(Cl)ccc12)c1ccc(Br)cc1 | 88.8 µM
28 | O=S(=O)(NCCNc1ccnc2cc(Cl)ccc12)c1ccc(F)cc1 | 203 µM
29 | O=S(=O)(NCCCNc1ccnc2cc(Cl)ccc12)c1ccccc1 | 275 µM
30 | Cc1ccc(S(=O)(=O)NCCCNc2ccnc3cc(Cl)ccc23)cc1 | 95 µM
31 | O=S(=O)(NCCCNc1ccnc2cc(Cl)ccc12)c1ccc(Cl)cc1 | 103 µM
32 | O=S(=O)(NCCCNc1ccnc2cc(Cl)ccc12)c1ccc(Br)cc1 | 22 µM
33 | O=S(=O)(NCCCNc1ccnc2cc(Cl)ccc12)c1ccc(F)cc1 | 339 µM
34 | O=S(=O)(NCCCCNc1ccnc2cc(Cl)ccc12)c1ccccc1 | > 257 µM
35 | O=S(=O)(NCCCCNc1ccnc2cc(Cl)ccc12)c1ccc(Cl)cc1 | 99.2 µM
36 | O=S(=O)(NCCCCNc1ccnc2cc(Cl)ccc12)c1ccc(Br)cc1 | 14.9 µM
37 | O=S(=O)(NCCCCNc1ccnc2cc(Cl)ccc12)c1ccc(F)cc1 | 155 µM
38 | Cc1ccc(S(=O)(=O)NCCCCNc2ccnc3cc(Cl)ccc23)cc1 | 107 µM
39 | COc1ncnc(NS(=O)(=O)c2ccc(N)cc2)c1OC [SULFADOXINE] | > 310 µM

System: not listed separately
Test: Selectivity index, ratio of MLC50 for African green monkey BGM cells to IC50 for chloroquine and sulfadoxine-resistant and mefloquine-sensitive Plasmodium falciparum W2
Type: toxicity, cell-based
Settings: read-out: Selectivity Index

Row | SMILES | selectivity ratio
40 | O=S(=O)(NCCNc1ccnc2cc(Cl)ccc12)c1ccc(Cl)cc1 | 171
41 | O=S(=O)(NCCNc1ccnc2cc(Cl)ccc12)c1ccccc1 | 74.7
42 | Cc1ccc(S(=O)(=O)NCCNc2ccnc3cc(Cl)ccc23)cc1 | 261
43 | O=S(=O)(NCCNc1ccnc2cc(Cl)ccc12)c1ccc(Br)cc1 | 73.3
44 | O=S(=O)(NCCNc1ccnc2cc(Cl)ccc12)c1ccc(F)cc1 | 180
45 | O=S(=O)(NCCCNc1ccnc2cc(Cl)ccc12)c1ccccc1 | 784
46 | Cc1ccc(S(=O)(=O)NCCCNc2ccnc3cc(Cl)ccc23)cc1 | 339
47 | O=S(=O)(NCCCNc1ccnc2cc(Cl)ccc12)c1ccc(Cl)cc1 | 380
48 | O=S(=O)(NCCCNc1ccnc2cc(Cl)ccc12)c1ccc(Br)cc1 | 75.8
49 | O=S(=O)(NCCCNc1ccnc2cc(Cl)ccc12)c1ccc(F)cc1 | 3390
50 | O=S(=O)(NCCCCNc1ccnc2cc(Cl)ccc12)c1ccccc1 | > 642
51 | O=S(=O)(NCCCCNc1ccnc2cc(Cl)ccc12)c1ccc(Cl)cc1 | 1100
52 | O=S(=O)(NCCCCNc1ccnc2cc(Cl)ccc12)c1ccc(Br)cc1 | 99.3
53 | O=S(=O)(NCCCCNc1ccnc2cc(Cl)ccc12)c1ccc(F)cc1 | 1030
54 | Cc1ccc(S(=O)(=O)NCCCCNc2ccnc3cc(Cl)ccc23)cc1 | 2490

System: Plasmodium berghei
Test: Antiplasmodial activity against Plasmodium berghei NK65 infected in mouse assessed as inhibition of inhibition of parasitemia at 10 mg/kg, po treated for 3 consecutive days 24 hrs after parasite infection and measured on day 5 after inoculation by Giemsa staining based microscopy
Type: functional
Settings: not given

Row | SMILES | inhibition in vivo at 10 mg/kg
55 | O=S(=O)(NCCCNc1ccnc2cc(Cl)ccc12)c1ccc(F)cc1 | 47%
56 | O=S(=O)(NCCCCNc1ccnc2cc(Cl)ccc12)c1ccc(Cl)cc1 | 49%
57 | O=S(=O)(NCCCCNc1ccnc2cc(Cl)ccc12)c1ccc(F)cc1 | 30%
58 | Cc1ccc(S(=O)(=O)NCCCCNc2ccnc3cc(Cl)ccc23)cc1 | 27%

System: Plasmodium berghei
Test: Antiplasmodial activity against Plasmodium berghei NK65 infected in mouse assessed as inhibition of inhibition of parasitemia at 20 mg/kg, po treated for 3 consecutive days 24 hrs after parasite infection and measured on day 5 after inoculation by Giemsa staining based microscopy
Type: functional
Settings: not given

Row | SMILES | inhibition in vivo at 20 mg/kg
59 | CCN(CC)CCCC(C)Nc1ccnc2cc(Cl)ccc12 (centres undefined) [CHLOROQUINE] | 93%
